Results on 13 molecules are retold here after PubChem BioAssay (NCI).

SMILES strings stand for the structures.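 Cultured in 96-well plates, cells were exposed to test compound for 48 hours across five concentrations. TGI denotes the concentration required for complete inhibition of growth.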

Some test systems named below: EKVX NSCLC; HCT-15 colon; HL-60(TB) leukemia; KM12 colon; NCI-H460 lung; SF-295 CNS; SK-MEL-28 melanoma; SK-MEL-5 melanoma; SR leukemia; UACC-62 melanoma; SK-MEL-2 melanoma; MDA-N.
Assay in all cases: growth of human tumour cells (NCI), 48 h

Turning to `CSc1ccc2c(cc1=O)[C@@H](NC(=O)c1cc(O)c(O)c(O)c1)CCc1cc(O)c(O)c(O)c1-2`, the TGI came to 56.7 µM in the test on EKVX NSCLC; 41.4 µM in the test on HCT-15 colon; 40.7 µM in the test with HL-60(TB) leukemia; 46.8 µM in the test on KM12 colon; 44.3 µM with NCI-H460 lung; 43.6 µM in the test with SF-295 CNS. The TGI in the test with SK-MEL-28 melanoma worked out at 94.8 µM; with SK-MEL-5 melanoma, 36.1 µM; in the test on SR leukemia it was 50.9 µM; with UACC-62 melanoma, 36.8 µM.
As to `COc1ccc(/C=N/N=C(\N)NO)c(OC)c1C`, the TGI in the test with EKVX NSCLC was 41.9 µM; with HCT-15 colon it was > 100 µM; in the test with KM12 colon it was > 100 µM; with NCI-H460 lung it was > 100 µM; with SF-295 CNS, > 100 µM; in the test with SK-MEL-2 melanoma it was 70.6 µM. The TGI in the test with SK-MEL-28 melanoma, with SR leukemia and with UACC-62 melanoma was > 100 µM in each case.
Turning to `CCOC(=O)CCC(NC(=O)c1ccc(NCc2ccc3nc(-c4ccccc4)c(Cl)nc3c2)cc1)C(=O)OCC` (stereo unspecified), the TGI with EKVX NSCLC, in the test on HCT-15 colon, with HL-60(TB) leukemia, in the test on KM12 colon, in the test on NCI-H460 lung and in the test on SF-295 CNS was > 100 µM in each case. Moreover, the values for the TGI with SK-MEL-2 melanoma, in the test on SK-MEL-5 melanoma and with SR leukemia were 25.9 µM, 23.7 µM and > 100 µM, respectively.
Consider `N#Cc1cc2c(cc1Cl)Sc1nnc(Nc3ccccc3)n1S2(=O)=O`, for which the TGI worked out at 7.95 µM in the test with EKVX NSCLC; 5.61 µM with HCT-15 colon; 13.6 µM in the test with HL-60(TB) leukemia; 4.65 µM in the test on KM12 colon; 9.22 µM in the test with NCI-H460 lung; 9.2 µM with SF-295 CNS. For the same molecule, the TGI came out at 8.26 µM in the test on SK-MEL-2 melanoma; 5.4 µM with SK-MEL-28 melanoma; 6.84 µM in the test on SK-MEL-5 melanoma; 0.696 µM with SR leukemia; 3.58 µM in the test with UACC-62 melanoma.
With `Cc1n[n+](Cc2ccccc2)c2sc(N)nn12`, the TGI in the test on EKVX NSCLC, in the test on HCT-15 colon, in the test on KM12 colon, in the test with MDA-N, in the test on SF-295 CNS and in the test on SK-MEL-2 melanoma was > 100 µM in each case. Besides, the figures for the TGI with SK-MEL-28 melanoma, in the test with SK-MEL-5 melanoma and in the test on UACC-62 melanoma were > 100 µM, > 100 µM and 38.5 µM, respectively.
In the case of `O=Cc1ccc(-c2ccc(-c3ccc(CO)s3)o2)s1`, the TGI in the test on EKVX NSCLC was > 69.1 µM; with HCT-15 colon, > 100 µM; in the test on HL-60(TB) leukemia it was > 22.3 µM; with KM12 colon, > 100 µM; in the test with NCI-H460 lung, 3.21 µM; in the test on SF-295 CNS, > 87.9 µM. Also, the TGI was 97 µM in the test with SK-MEL-2 melanoma; > 80.1 µM in the test on SK-MEL-28 melanoma; 17.7 µM in the test on SK-MEL-5 melanoma; 2.74 µM in the test with SR leukemia; 6.03 µM in the test on UACC-62 melanoma.
Regarding `NC(=O)c1cn(Cc2ccccc2)c(=O)n1Cc1ccccc1`, the TGI with EKVX NSCLC, in the test with HCT-15 colon, with HL-60(TB) leukemia, in the test with KM12 colon, with NCI-H460 lung and in the test with SF-295 CNS was > 100 µM in each case. Further, the TGI in the test on SK-MEL-2 melanoma, with SK-MEL-28 melanoma, with SK-MEL-5 melanoma and in the test on UACC-62 melanoma was > 100 µM in each case.
`CC(=O)O[C@]12CCCCCC1C1(O)C(O)CCCCC12` (stereo partly specified): the TGI in the test with EKVX NSCLC, in the test on HCT-15 colon, in the test with HL-60(TB) leukemia, with KM12 colon, in the test on NCI-H460 lung and in the test on SF-295 CNS was > 100 µM each time. The TGI in the test on SK-MEL-2 melanoma, with SK-MEL-28 melanoma, in the test on SK-MEL-5 melanoma, in the test with SR leukemia and with UACC-62 melanoma was > 100 µM each time.
For `C1COCCSC2=C(SCCO1)SC(=C1SC3=C(SCCOCCOCCS3)S1)S2`, the TGI in the test with EKVX NSCLC, in the test with HCT-15 colon, in the test on HL-60(TB) leukemia, in the test with KM12 colon, in the test on NCI-H460 lung and with SF-295 CNS was > 100 µM each time. In addition, the TGI in the test with SK-MEL-2 melanoma, with SK-MEL-28 melanoma, in the test on SK-MEL-5 melanoma, in the test on SR leukemia and with UACC-62 melanoma was > 100 µM throughout.
`C1=NC(N(Cc2ccccc2)Cc2ccccc2)N(Cc2ccccc2)N1` (stereo unspecified): the TGI was 56.2 µM in the test on EKVX NSCLC; 34.4 µM with HCT-15 colon; > 100 µM with HL-60(TB) leukemia; 31.1 µM in the test on KM12 colon; 37.2 µM in the test with NCI-H460 lung; 29.6 µM in the test with SF-295 CNS. For the same molecule, the TGI in the test with SK-MEL-2 melanoma worked out at 31.8 µM; with SK-MEL-28 melanoma, 37.2 µM; in the test on SK-MEL-5 melanoma, 27.3 µM; with UACC-62 melanoma it was 27.2 µM.
Consider `COCCn1cnc2c(Cl)nc(Nc3ccccc3)nc21`, for which the TGI with EKVX NSCLC is 51.9 µM; in the test on HCT-15 colon, 69.1 µM; with HL-60(TB) leukemia, 63.3 µM; with KM12 colon, > 100 µM; in the test with NCI-H460 lung, > 100 µM; with SF-295 CNS, > 100 µM. In addition, the TGI in the test with SK-MEL-2 melanoma was 47.4 µM; with SK-MEL-28 melanoma, > 100 µM; in the test with SK-MEL-5 melanoma it was > 100 µM; with SR leukemia, > 100 µM; in the test on UACC-62 melanoma, 85.1 µM.
Consider `CC(=O)O[C@@]12CO[C@@H]1CC(O)[C@@]1(C)C(=O)[C@H](O)C3=C(C)C(O)C[C@@](O)(C(OC(=O)c4ccccc4)C12)C3(C)C` (stereo partly specified), for which the TGI in the test with EKVX NSCLC was > 100 µM; in the test with HCT-15 colon it was > 100 µM; in the test with HL-60(TB) leukemia, > 100 µM; with KM12 colon, > 89.2 µM; in the test on NCI-H460 lung it was > 100 µM; in the test on SF-295 CNS, > 51.1 µM. The values for the TGI in the test on SK-MEL-5 melanoma, in the test on SR leukemia and in the test with UACC-62 melanoma were > 100 µM, > 100 µM and 3.7 µM, respectively.
With `C=C1CC[C@H]2C(=O)OC(c3ccoc3)C[C@]2(C)C/C=C\C=C/1C(=O)OC` (stereo partly specified), the TGI in the test on EKVX NSCLC, with HCT-15 colon, in the test on KM12 colon, in the test on MDA-N, in the test with NCI-H460 lung and with SF-295 CNS was > 25 µM each time. Also, the TGI with SK-MEL-2 melanoma, with SK-MEL-28 melanoma, with SK-MEL-5 melanoma and in the test with UACC-62 melanoma was > 25 µM throughout.
